# Experimental data: publication PMC10247784, “Physiological activation of human and mouse bitter taste receptors by bile acids” (Communications Biology, 2023)
# Biological target: T1, mouse Tas2r108 (Mus musculus, UniProt Q9JKT3)
# T1 construct: expressed in transfected cells; host or cells: HEK293T-Gα16gust44
# T1 sequence (Q9JKT3 1-297): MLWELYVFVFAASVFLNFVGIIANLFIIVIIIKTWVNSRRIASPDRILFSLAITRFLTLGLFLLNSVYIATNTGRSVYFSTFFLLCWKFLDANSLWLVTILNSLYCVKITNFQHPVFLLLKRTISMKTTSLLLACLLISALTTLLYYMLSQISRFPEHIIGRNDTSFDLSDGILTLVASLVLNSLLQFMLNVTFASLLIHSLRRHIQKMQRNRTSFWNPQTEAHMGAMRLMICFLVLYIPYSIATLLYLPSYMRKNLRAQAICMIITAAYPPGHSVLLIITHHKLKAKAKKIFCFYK
# Experiment: Calcium imaging assay (FLIPR), HEK293T-Gα16gust44 cells transfected with mouse Tas2r108
# Format: cell-based
# Procedure, shortened: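 HEK293T-Gα16gust44 cells transiently transfected with the bitter-taste receptor, loaded next day with Fluo-4-AM plus 2.5 mM probenecid, and challenged with bile acids on FLIPR Tetra. Signals mock-subtracted, expressed as ΔF/F vs buffer.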
smiles,measurement,setting,value
"C[C@H](CCC(=O)O)[C@H]1CC[C@H]2[C@@H]3[C@H](O)C[C@@H]4C[C@H](O)CC[C@]4(C)[C@H]3C[C@H](O)[C@]12C [Cholic Acid, cholic acid]",RLU,Time 0 s,0 RLU
same,RLU,Time 2 s,6.931 RLU
same,RLU,Time 4 s,8.7879 RLU
same,RLU,Time 6 s,7.879 RLU
same,RLU,Time 8 s,1.863 RLU
same,RLU,Time 12 s,5.906 RLU
same,RLU,Time 14 s,3.861 RLU
same,RLU,Time 16 s,1.935 RLU
same,RLU,Time 18 s,-12.1137 RLU
same,RLU,Time 137.562 s,234.064 RLU
same,RLU,Time 143.562 s,197.377 RLU
same,RLU,Time 149.562 s,197.423 RLU
same,RLU,Time 155.562 s,210.935 RLU
same,RLU,Time 161.562 s,218.751 RLU
same,RLU,Time 167.562 s,184.375 RLU
same,RLU,Time 173.562 s,173.738 RLU
same,RLU,Time 179.562 s,175.807 RLU
same,RLU,Time 185.562 s,185.91 RLU
same,RLU,Time 191.562 s,162.947 RLU
same,RLU,Time 197.562 s,167.018 RLU
same,RLU,Time 203.562 s,164.056 RLU
same,RLU,Time 209.562 s,161.279 RLU
same,RLU,Time 215.562 s,154.776 RLU
same,RLU,Time 221.562 s,158.451 RLU
same,RLU,Time 227.562 s,139.492 RLU
same,RLU,Time 233.562 s,152.204 RLU
same,RLU,Time 239.562 s,73.7327 RLU
same,RLU,Time 245.562 s,142.097 RLU
same,RLU,Time 293.562 s,160.558 RLU
same,RLU,Time 299.562 s,159.088 RLU
same,RLU,Time 305.562 s,175.817 RLU
same,RLU,Time 311.562 s,159.088 RLU
same,RLU,Time 317.562 s,162.782 RLU
same,RLU,Time 323.562 s,182.257 RLU
same,RLU,Time 329.562 s,162.985 RLU
same,RLU,Time 335.562 s,195.196 RLU
same,RLU,Time 341.562 s,184.414 RLU
same,RLU,Time 347.562 s,175.395 RLU
same,RLU,Time 353.562 s,161.041 RLU
same,RLU,Time 359.562 s,176.226 RLU
same,Activation threshold concentration Tas2r108,p < 0.01 vs empty vector,100 µM
same,RLU,time 18.797 s,17.792 RLU
same,RLU,time 20.797 s,-23.002 RLU
same,RLU,time 22.797 s,-57.7927 RLU
same,RLU,time 24.797 s,-48.9168 RLU
same,RLU,time 26.797 s,-17.0044 RLU
same,RLU,time 28.797 s,22.9392 RLU
same,RLU,time 30.797 s,32.9758 RLU
same,RLU,time 32.797 s,53.0645 RLU
same,RLU,time 34.797 s,83.8222 RLU
same,RLU,time 36.797 s,93.8063 RLU
same,RLU,time 38.797 s,138.967 RLU
same,RLU,time 40.797 s,140.665 RLU
same,RLU,time 42.797 s,165.846 RLU
same,RLU,time 44.797 s,192.868 RLU
same,RLU,time 46.797 s,190.046 RLU
same,RLU,time 48.797 s,199.412 RLU
same,RLU,time 50.797 s,213.089 RLU
same,RLU,time 52.797 s,215.082 RLU
same,RLU,time 54.797 s,250.612 RLU
same,RLU,time 56.797 s,250.502 RLU
same,RLU,time 58.797 s,257.511 RLU
same,RLU,time 60.797 s,256.774 RLU
same,RLU,time 62.797 s,238.682 RLU
same,RLU,time 64.797 s,249.009 RLU
same,RLU,time 66.797 s,305.929 RLU
same,RLU,time 68.797 s,280.306 RLU
same,RLU,time 70.797 s,276.637 RLU
same,RLU,time 72.797 s,284.565 RLU
same,RLU,time 74.797 s,263.421 RLU
same,RLU,time 76.797 s,265 RLU
same,RLU,time 78.797 s,262.578 RLU
same,RLU,time 80.797 s,288.384 RLU
same,RLU,time 82.797 s,280.368 RLU
same,RLU,time 84.797 s,274.722 RLU
same,RLU,time 86.797 s,270.305 RLU
same,RLU,time 88.797 s,275.266 RLU
same,RLU,time 90.797 s,279.283 RLU
same,RLU,time 92.797 s,261.98 RLU
same,RLU,time 94.797 s,257.248 RLU
same,RLU,time 96.797 s,285.43 RLU
same,RLU,time 98.797 s,259.515 RLU
same,RLU,time 100.797 s,270.732 RLU
same,RLU,time 102.797 s,264.325 RLU
same,RLU,time 104.797 s,245.741 RLU
same,RLU,time 106.797 s,235.309 RLU
same,RLU,time 108.797 s,255.707 RLU
same,RLU,time 110.797 s,240.509 RLU
same,RLU,time 112.797 s,233.706 RLU
same,RLU,time 114.797 s,230.518 RLU
same,RLU,time 116.797 s,242.495 RLU
same,RLU,time 118.797 s,239.456 RLU
same,RLU,time 120.797 s,255.452 RLU
same,RLU,time 122.797 s,242.932 RLU
same,RLU,time 124.797 s,218.082 RLU
same,RLU,time 126.797 s,235.026 RLU
same,RLU,time 128.797 s,232.943 RLU
same,RLU,time 130.797 s,235.505 RLU
same,RLU,time 132.797 s,229.818 RLU
same,RLU,time 134.797 s,212.202 RLU
same,RLU,time 136.797 s,197.953 RLU
"C[C@H](CCC(=O)O)[C@H]1CC[C@H]2[C@@H]3[C@@H](O)C[C@@H]4C[C@H](O)CC[C@]4(C)[C@H]3CC[C@]12C [Ursodeoxycholic Acid, ursodeoxycholic acid]",Receptor response Tas2r108,screening,does not respond
